The structures appear in SMILES notation.

By melting point is commonly meant the temperature, or range, at which the solid turns liquid. In turn, `CCCCc1c(C(=O)N(C)Cc2ccc3c(Br)c(OCC(Cc4ccccc4)C(=O)O)ccc3c2)oc2ccccc12` (stereo not drawn) registered a melting point of 64 to 68 °C.

Turning to `C#CCNc1ccc([N+](=O)[O-])cc1`, the melting point was in the range of 150 to 153 °C. `CNN(NC)C(=S)Oc1cc(C)ccc1C(=O)OC` showed a melting point of 99.9 to 100 °C.

Turning to `CC(C)(C)c1ccc(OCC(O)CN2CCC3(CC2)CSC2=C(O3)c3cc(-c4ccccc4)ccc3C(=O)C2=O)cc1` (stereo not drawn), the melting point was in the range of 94 to 97 °C. `COCCO[C@@H]1c2ccc3c(nc(C)n3C)c2O[C@H](c2ccccc2)[C@H]1O` displayed a melting point of 163 °C. Consider `CCCNC(=O)CCc1ccc2ccn(Cc3ccc(C(=O)NS(=O)(=O)c4ccccc4C)cc3OC)c2c1`, for which the melting point turned out to be 110 °C. In turn, `COP(=O)(NNC(C)(C)C)OC` came in with a melting point of 61 to 68 °C. The value for `Cc1cc(-c2nc3cccnn3c2-c2ccnc(NC(N)=O)c2)ccc1F` was 254 to 255 °C; that for `CC(C)C1NC(=S)N(c2ccc(N(C)C)c3ccccc23)C1=O` (stereo not drawn) was 108 to 110 °C; that for `O=C(NCc1ccc2cc(O)ccc2c1)c1cc(-c2ccc(Cl)cc2)oc1C(F)(F)F` was 189 to 191 °C.

For `Cc1ccc(NC(=O)NCc2ccc3c(c2)CN(C2CCC(=O)NC2=O)C3=O)cc1O` (stereo not drawn), the melting point was 273 to 275 °C.

Consider `COC(=O)CCn1cc(C2=C(c3cn(C)c4ccccc34)C(=O)NC2=O)c2ccccc21`, for which the melting point was 209 to 211 °C. Take `Cc1ccc(NC#N)c(-c2ccccc2)c1`: the melting point worked out at 80 °C. In the case of `CC1CC2=CC(=O)C=CC2(C)C2C(=O)CC3(C)C(=O)CCC3C12` (stereo not drawn), the melting point was in the range of 257 to 259 °C. The molecule `COC(=O)c1ccc(SCn2cc(I)cnc2=O)cc1` yielded a melting point of 210 °C. Molecule `CCCCCCCCCCCCNc1ncnc2nc[nH]c12` had a melting point of 159 to 160 °C. For `COC(=O)C1C=CCn2c(=O)[nH]c(=O)n21` (stereo not drawn), the melting point was in the range of 210 to 213 °C.

For `CC(C)N1C(=O)NC(c2ccc3c(c2)OCCO3)c2cc3c(cc21)OCCO3` (stereo not drawn), the melting point was 92 to 95 °C. `CCOC(=O)c1ncn2c1[C@@H]1CCCN1C(=O)c1sccc1-2` gave a melting point of 212 to 213 °C. Consider `CCn1ncc2c(Cl)cc(-c3ccccc3)nc21`, for which the melting point was in the range of 43 to 45 °C. The molecule `CC(=O)SC(CC(=O)c1ccccc1Cl)C(=O)O` (stereo not drawn) returned a melting point of 115 to 116 °C.

`O=C(Nc1cccc(C(=O)Nc2nnn[nH]2)c1)NC1N=C(c2ccccc2F)c2ccccc2N(CC(=O)N2CC3CCC(CC3)C2)C1=O` (racemic) gave a melting point of 193 to 196 °C. `Cn1c(Sc2ccc(C(=O)O)c(Cl)c2)n[nH]c1=O` registered a melting point of 236 °C. `COC(=O)C(O)C(CC1CCCCC1)NC(=O)C(Cc1c[nH]cn1)NC(=O)C(CC(=O)N1CCOCC1)Cc1cccc2ccccc12` (mixture of isomers) gave a melting point of 83 to 87 °C.

On to `CN(C)C(=O)n1cc2c(n1)-c1ccc(Cl)cc1C(c1ccccc1Cl)=NC2`, for which the melting point lay within 175 to 176 °C. Take `CCC(=O)c1cccc(S(N)(=O)=O)c1`: the melting point was 152 to 153 °C.

`OC1CSC(Sc2cc(C(F)(F)F)cc(C(F)(F)F)c2)C(O)C1O` (stereo not drawn) showed a melting point of 157 to 158 °C.

With `COC(=O)NCc1nc2ccn(Cc3ccc(F)cc3)cc-2n1`, the melting point amounted to 179 °C. For `C[C@H](CO)NN1c2[nH]c(=O)cnc2C=NC1SCc1cccc(C(F)(F)F)c1F` (stereo partly drawn), the melting point lay in the range of 217 to 219 °C. On to `COc1cc(COc2nn(-c3ccccc3)cc2C(C[N+](=O)[O-])C[N+](=O)[O-])ccc1OCc1nc(-c2ccco2)oc1C`, for which the melting point was in the range of 126 to 127 °C. The molecule `CSc1nnc2ccc3ccccc3n12` came in with a melting point of 115 to 116 °C. With `COc1cc(C2=C(c3c[nH]c4ccccc34)C(=O)NC2=O)cc(OC)c1OC`, the melting point is 227 °C. In the case of `CC(=O)c1c(C)c(C)c(C(C)=O)c2c1C(=O)c1ccccc1C2=O`, the melting point fell in the range of 222 to 224 °C.

Source of the values: a melting point compilation (Tetko et al.; mined from patent text by program, amines drawn as free bases though some values may be those of a salt).
